Test results published in PMC7693775, “AGTR1 Is Overexpressed in Neuroendocrine Neoplasms, Regulates Secretion and May Potentially Serve as a Target for Molecular Imaging and Therapy” (Cancers, 2020).
Read-outs that look alike come from different tables or passages of the source.

Assays:
BON cells [1] = assay: serotonin ELISA of cell supernatants; type: cell-based, human; conditions: 1 µM, 6 h
Procedure: (§1) If not indicated otherwise, cell culture reagents were obtained from Biochrom AG (Berlin, Germany). The human NEN cell lines BON and QGP-1 (pancreatic), LCC-18 (colonic), H727 and UMC-11 (pulmonary) and all other cell lines were cultured in RPMI 1640 supplemented with 10 % fetal calf serum in a humidified atmosphere at 37 °C and 5% CO2. BON cells were a kind gift of Courtney Townsend (University of Texas, Galveston, TX, USA). LCC-18 were kindly donated by Kjell Ö berg (University of Uppsala, Uppsala, Sweden) and KRJ-1 by Dr. Irvin Modlin (Yale University, New Haven, CT, USA). QGP-1 were obtained from the Japanese Collection of Research Bioresources.
(§2) All other cell lines were obtained from Cell Line Services (Heidelberg, Germany), DSMZ (Braunschweig, Germany) or ATCC (Manassas, VA, USA). Cells were cultured for no more than 20 passages. Mycoplasma testing was done at least every six months. Cell lines were authenticated by STR analysis at DSMZ (Braunschweig, Germany). Due to the lack of reference profiles for BON and LCC-18, their respective STR profile was characterized as unique and not contamina ted with any […]
(§3) Table 1. STR profiling data for BON and LCC -18 cells.
(§4) Experiments in 96-well format were performed as previously described (18). […]

BON cells [2] = assay: metabolic activity (AlamarBlue); type: cell-based, human; conditions: 96 h, different concentrations
Procedure: (§5) filter paper and measured in a gamma counter. Additional tissue sections were stained with hematoxylin and eosin for comparison with the corresponding autoradiograms.
as §1, with “Bioresources. […]” for “Bioresources.”
(§6) Cells were seeded in quadruplicates at a density of 5,000 cells in 50 µ L medium per well in 96 well plates, grown overnight and treated with the indicated ligand concentrations (on top of the well, final volume 100 µ L). After 96 h, metabolic activity was determined by addition of 100 µ L medium containing AlamarBlue™ redox indicator (Thermo Fisher, Waltham, MA, US) to each well. After 3 –4 h, the resulting fluorescence was measured with an EnVision Multilabel Plate Reader (Perkin Elmer, Waltham, USA). […]

H727 cells [3] = assay: metabolic activity (AlamarBlue); type: cell-based, human; conditions: 96 h, different concentrations
Procedure: as §5
as §1, with “Bioresources. […]” for “Bioresources.”
as §6

BON cells [4] = assay: chromogranin A ELISA of cell supernatants; type: cell-based, human; conditions: 10 µM preincubation 15 min, 100 nM ATII
Procedure: as §1, §2, §3, §4

H727 cells [5] = assay: intracellular calcium mobilization assay; type: cell-based, human; conditions: preincubation 15-30 min before ATII (valsartan, PD123319: 1 µM)
Procedure: as §1, §2, §3, §4

BON cells [6] = type: cell-based, human; conditions: for effect on ATII-induced calcium signal: BON cells, preincubation 15-30 min before ATII (valsartan, PD123319: 1 µM)
AGTR1 [7] = target: AGTR1; parameters: method as in PMID 25313325; conditions: read-out: published Ki; cited from earlier work
AGTR1 [8] = target: T1, AGTR1 (Homo sapiens, UniProt P30556); assay: competition binding with 125I-ATII, BON cells
T1 sequence (P30556 1-359): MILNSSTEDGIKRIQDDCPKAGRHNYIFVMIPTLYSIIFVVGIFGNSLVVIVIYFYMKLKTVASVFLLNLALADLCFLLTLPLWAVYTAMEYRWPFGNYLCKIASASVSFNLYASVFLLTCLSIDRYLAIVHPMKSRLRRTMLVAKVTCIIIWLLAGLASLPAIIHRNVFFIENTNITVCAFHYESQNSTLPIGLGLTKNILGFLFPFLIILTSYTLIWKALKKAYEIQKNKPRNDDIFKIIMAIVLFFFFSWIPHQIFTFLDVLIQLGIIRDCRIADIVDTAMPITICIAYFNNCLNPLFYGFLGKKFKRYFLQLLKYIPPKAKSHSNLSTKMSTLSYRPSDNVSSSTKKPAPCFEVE
Procedure: (§7) The Boc-protected ITCC dye (69 mg) was dissolved in DCM (3.0 mL) and subjected to deprotection by addition of TFA (300 µL). The reaction mixture was stirred for 2 h, the solvent removed under reduced pressure and the mixture codistilled with DCM several times to remove […]
(§8) TFA. […] MS (ESI): C39H51N4NaO7S2
(§9) 2.2 eq.) and DIPEA (7.2 µL, 42 µmol, 4.7 eq.) and the reaction mixture stirred for 1 h. The deprotected ITCC dye (8.0 mg, 9.0 µmol, 1.0 eq.) was dissolved in DMF (125 µL) with DIPEA (3.6 µL, 21 µmol, 2.3 eq.) and added to the reaction mixture which was stirred for additional 17 h. The mixture was precipitated from Et2O and the precipitate purified via flash chromatography (DCM/MeOH) to afford […]
(§10) Peptide iodination was performed as previously described [ 1 ].
(§11) (Sigma, Deisenhofen, Germany) were iodinated with 1 mCi carrier -free Na 125 I (NEZ033L010MC, Perkin Elmer, Waltham, MA, USA) and purified by HPLC (Analyt ic HPLC 1200 Series, Agilent, Santa Clara, CA, USA; see Figure S1 in supplementary material). The method for the competitive binding assay was described in detail before. For saturation experiments, binding buffer was prepared […]
(§12) of additional unlabeled peptide (total binding). Non -specific binding was subtracted from total binding to obtain spec ific binding. […]

[9] = target: T2, ATII receptor (AGTR1, AGTR2) (Homo sapiens, UniProt P50052); assay: in vitro receptor autoradiography of tissue cryosections; type: binding; conditions: normal pancreas; 1 µM competitor
T2 construct: Consecutive cryosections of each tissue were incubated with the radioligand in the absence or presence of an excess of non-labeled ATII; from tissue; host or cells: flash-frozen cryosections of patient pancreatic and small-intestinal NEN and of control pancreas, small intestine and liver
T2 sequence (P50052 1-363): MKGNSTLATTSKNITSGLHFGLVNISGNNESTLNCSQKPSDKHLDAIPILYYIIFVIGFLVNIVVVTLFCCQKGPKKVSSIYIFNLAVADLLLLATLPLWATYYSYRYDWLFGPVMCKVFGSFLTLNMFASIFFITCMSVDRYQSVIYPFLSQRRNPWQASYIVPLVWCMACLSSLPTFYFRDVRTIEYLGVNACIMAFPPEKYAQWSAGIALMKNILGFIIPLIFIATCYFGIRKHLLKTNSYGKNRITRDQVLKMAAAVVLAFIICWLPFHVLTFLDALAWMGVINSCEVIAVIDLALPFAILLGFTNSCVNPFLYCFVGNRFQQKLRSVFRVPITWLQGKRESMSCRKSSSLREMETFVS

[10] = target: T3, ATII receptor (AGTR1, AGTR2) (Homo sapiens, UniProt P30556); assay: as above; type: binding; conditions: 1 µM competitor
T3 construct: Consecutive cryosections of each tissue were incubated with the radioligand in the absence or presence of an excess of non-labeled ATII; from tissue; host or cells: flash-frozen cryosections of patient pancreatic and small-intestinal NEN and of control pancreas, small intestine and liver
T3 sequence (P30556 1-359): T1 sequence (P30556 1-359)

AGTR1 [11] = target: T1, AGTR1; assay: competition binding with 125I-ATII, H727 cells
Procedure: as §7, §8, §9, §10, §11, §12

[12] = system: receptor negative QGP-1 tumors; conditions: 1 nmol i.v., NIRF imaging
Procedure: (§13) free medium for 10 min at room tem perature. A buffer baseline was obtained on the dynamic mass
(§14) used and plotted with GraphPad Prism 5.04.
(§15) For in vivo receptor targeting, the near -infrared fluorescent
(§16) in 100 µ L 0.9 % NaCl per animal).
(§17) fluorescence intensities.
(§18) animal research authorities.
J. Med. Chem. 2016 , 59, 10100–10112,

[13] = system: AGTR1-positive BON tumors; assay: in vivo near-infrared fluorescent imaging, xenograft; parameters: species or system mice
Procedure: seeded with 15,000/50,000 cells per well.
as §13, §14, §15, §16, §17, §18
First Linear Peptidic Urotensin -II Receptor Agonist. J. Med. Chem. 2016 , 59, 10100–10112,

[14] = target: angiotensin II (Homo sapiens), P01019; assay: competition
[15] = target: angiotensin II (Homo sapiens), P01019; assay: competition; remark: listed apart in the source
[16] = target: 125I-angiotensin II (Homo sapiens), P01019; assay: radioligand
125I-angiotensin II (Homo sapiens), P01019, sequence (P01019 whole entry, looked up): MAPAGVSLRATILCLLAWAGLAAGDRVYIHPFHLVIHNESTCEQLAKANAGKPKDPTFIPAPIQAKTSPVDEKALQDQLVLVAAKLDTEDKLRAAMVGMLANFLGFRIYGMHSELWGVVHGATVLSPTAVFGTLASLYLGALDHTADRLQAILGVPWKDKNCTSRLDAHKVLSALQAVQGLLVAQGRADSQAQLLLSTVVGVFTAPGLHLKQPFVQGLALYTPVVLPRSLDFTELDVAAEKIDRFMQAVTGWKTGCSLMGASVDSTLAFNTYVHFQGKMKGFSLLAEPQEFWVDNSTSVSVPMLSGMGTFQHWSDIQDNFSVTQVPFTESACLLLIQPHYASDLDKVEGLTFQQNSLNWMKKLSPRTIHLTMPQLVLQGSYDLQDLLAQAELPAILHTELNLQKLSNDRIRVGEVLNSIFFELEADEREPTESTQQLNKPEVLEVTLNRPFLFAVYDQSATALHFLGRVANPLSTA

angiotensin II (Homo sapiens), P01019, sequence (P01019 whole entry, looked up): as above

For `CCCCC(=O)N(Cc1ccc(-c2ccccc2-c2nnn[nH]2)cc1)[C@H](C(=O)O)C(C)C` [valsartan], the “serotonin (5HT) secretion” value (BON cells [1]) was “did not modify”, the metabolic activity (BON cells [2]) was “no change” and the metabolic activity (H727 cells [3]) was “no change”. For the same molecule, the “effect on ATII-stimulated CgA secretion” value (BON cells [4]) was “diminished”, the “effect on ATII-induced calcium signal” value (H727 cells [5]) was “significantly diminish” and the “effect on ATII-induced calcium signal” value (BON cells [6]) was “significantly diminish”.

For saralasin, the Ki (AGTR1 [7]) is listed as 1 nM.

In the case of `Cc1cc(Cn2cnc3c2C[C@@H](C(=O)O)N(C(=O)C(c2ccccc2)c2ccccc2)C3)ccc1N(C)C` [PD123319], the “displacement of 125I-ATII binding” value (AGTR1 [8]) is reported as “not”, the “effect on ATII-induced calcium signal” value (H727 cells [5]) is reported as “did not influence” and the “displacement of 125I-ATII binding” value [9] is reported as “displaced”. The “displacement of 125I-ATII binding” value ([10]; pancreatic NEN tissues #1, #4, #6, #8) was “not”, the “displacement of 125I-ATII binding” value ([10]; small-intestinal NEN tissues) was “unable to compete” and the “displacement of 125I-ATII binding” value (AGTR1 [11]) was “not”. For the same molecule, the “effect on ATII-induced calcium signal” value (BON cells [6]) was “did not influence”.

Work on `CC[C@H](C)[C@H](NC(=O)[C@H](Cc1ccc(O)cc1)NC(=O)[C@@H](NC(=O)[C@H](CCCNC(=N)N)NC(=O)[C@@H](N)CC(=O)O)C(C)C)C(=O)N[C@@H](Cc1c[nH]cn1)C(=O)N1CCC[C@H]1C(=O)N[C@@H](Cc1ccccc1)C(=O)O` [ATII, angiotensin II] yielded an EC50 (BON cells [6]; 24 h) of 4.9 ± 5.2 nM.

For `CC(C)[C@H](NC(=O)[C@H](CCCNC(=N)N)NC(=O)CN(C)C(=O)CCC(=O)NCCCOCCOCCOCCCNC(=O)c1ccc2c(c1)C(C)(C)C(=CC=CC=CC=CC1=[N+](CCCCS(=O)(=O)[O-])c3ccccc3C1(C)C)N2CCCCS(=O)(=O)O)C(=O)N[C@@H](Cc1ccc(O)cc1)C(=O)N[C@H](C(=O)N[C@@H](Cc1c[nH]cn1)C(=O)N1CCC[C@H]1C(=O)N[C@@H](C)C(=O)O)C(C)C` [saralasin–ITCC], the “decrease of affinity by ITCC versus published Ki of saralasin” value (AGTR1 [8]) was 250 fold, the “uptake in QGP-1 tumors” value [12] was “Low non-significant uptake” and the “accumulation in AGTR1-positive xenograft tumors” value ([13]; 1 nmol i.v., NIRF imaging) was “selective accumulation”. For the same molecule, the “ex vivo organ imaging” value ([13]; 6 hours after injection) was “accumulation in kidneys and liver”.

With `CCOc1nc2cccc(C(=O)O)c2n1Cc1ccc(-c2ccccc2-c2nc(=O)o[nH]2)cc1` [azilsartan] the “serotonin (5HT) secretion” value (BON cells [1]) was “did not modify”.

B1: Angiotensin II receptor type 1, P30556 (protein)
chain: T1 sequence (P30556 1-359)
B1 showed a Ki [14] of 0.2 nM, a Ki [15] of 0.1 nM and a Kd [16] of 0.6 nM.
